Common to all, as to assay type: cell-based
One assay concerns MKN45 cells. The experiment in a line: MKN45 cell proliferation assay (Cell-Titer-Glo, 120 hr). The note with it: for EC50: Homo sapiens, MKN-45, 120 h, read-out: MKN45 Cell Prolif. 120 hr EC50; for MKN45 Cell Prolif. 120 hr YMin (%): minimal percent of DMSO control observed. Put shortly: (§1)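 MKN45 (400/well) and MDA-MB-231 (800/well) cells in RPMI with 10% FBS were exposed to 10-point half-log doses from 1 or 10 uM (0.1% DMSO) for 120 h at 37 °C. Viability was read by CellTiter-Glo luminescence. EC50 came from blank-subtracted, %DMSO four-parameter fits, with Ymin-obs as the lowest %DMSO observed.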

In the next assay the test system is MDA-MB-231 cells. In words: MDA-MB-231 cell proliferation assay (Cell-Titer-Glo, 120 hr). Particulars: for EC50: Homo sapiens, MDA-MB-231, 120 h, read-out: MDA-MB 231 Cell Prolif. 120 hr EC50; for MDA-MB 231 Cell Prolif. 120 hr YMin (%): minimal percent of DMSO control observed. The procedure, abridged: as §1
The next assay concerns the target T1, WEE1 (Homo sapiens, UniProt P30291+Q96SW2).
T1 construct: C-terminal ePL-tagged (DiscoverX, Fremont, CA) full-length WEE1 expression construct; expressed in transfected cells; host or cells: LentiX-HEK293T (Invitrogen), lentivirally transduced; the cells also over-express GSPT1-GN
The experiment in a line: WEE1-ePL degradation assay (293T-LentiX, InCELL Hunter luminescence, 4 hr). The note with it: for 293T-LentiX WEE1-ePL Degradation 4 hr YMin (%): lower limit of fit, % of DMSO control signal remaining; for DC50: LentiX-HEK293T cells expressing WEE1-ePL, 4 hr incubation, read-out: 293T-LentiX WEE1-ePL Degradation 4 hr EC50. Put shortly: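 LentiX-HEK293T cells expressing C-terminally ePL-tagged full-length WEE1 plus non-degradable GSPT1-GN (G575N, N-terminal 158 aa truncated). Treated 4 h at 37 °C with a 10-point, 3-fold series from 1 or 10 µM, then read by InCELL Hunter luminescence. EC50 from four-parameter logistic fit, Ymax set by DMSO control.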

T1 sequence (P30291 whole entry): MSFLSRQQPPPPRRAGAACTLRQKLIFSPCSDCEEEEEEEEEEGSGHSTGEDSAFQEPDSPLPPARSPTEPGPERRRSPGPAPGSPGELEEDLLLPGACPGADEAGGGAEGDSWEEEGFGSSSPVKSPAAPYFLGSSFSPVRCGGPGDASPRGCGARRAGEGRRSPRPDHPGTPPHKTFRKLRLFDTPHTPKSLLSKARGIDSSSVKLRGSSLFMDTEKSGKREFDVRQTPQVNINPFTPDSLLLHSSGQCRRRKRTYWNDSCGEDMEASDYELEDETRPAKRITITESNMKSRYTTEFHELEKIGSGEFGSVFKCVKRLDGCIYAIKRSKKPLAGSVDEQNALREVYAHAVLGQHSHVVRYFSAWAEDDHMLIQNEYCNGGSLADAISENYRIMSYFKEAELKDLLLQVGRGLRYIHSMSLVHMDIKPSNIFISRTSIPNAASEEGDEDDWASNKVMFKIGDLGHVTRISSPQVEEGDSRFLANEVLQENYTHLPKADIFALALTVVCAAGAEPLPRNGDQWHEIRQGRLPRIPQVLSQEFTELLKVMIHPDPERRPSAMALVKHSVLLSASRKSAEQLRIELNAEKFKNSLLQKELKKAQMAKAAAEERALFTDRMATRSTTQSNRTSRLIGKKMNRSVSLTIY
T1 sequence (Q96SW2 whole entry): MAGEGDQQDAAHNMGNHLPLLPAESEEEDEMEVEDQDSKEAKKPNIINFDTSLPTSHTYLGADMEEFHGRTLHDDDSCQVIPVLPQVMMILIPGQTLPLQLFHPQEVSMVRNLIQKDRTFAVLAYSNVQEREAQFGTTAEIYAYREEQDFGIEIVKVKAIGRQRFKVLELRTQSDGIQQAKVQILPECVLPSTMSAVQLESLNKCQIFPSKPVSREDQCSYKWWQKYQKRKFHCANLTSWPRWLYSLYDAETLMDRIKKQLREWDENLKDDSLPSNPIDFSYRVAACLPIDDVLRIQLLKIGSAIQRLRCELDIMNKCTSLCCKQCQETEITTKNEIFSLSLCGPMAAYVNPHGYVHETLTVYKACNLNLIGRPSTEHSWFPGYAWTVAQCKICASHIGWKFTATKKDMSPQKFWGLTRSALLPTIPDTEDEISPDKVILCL
T1 sequence (Q16531 whole entry partner): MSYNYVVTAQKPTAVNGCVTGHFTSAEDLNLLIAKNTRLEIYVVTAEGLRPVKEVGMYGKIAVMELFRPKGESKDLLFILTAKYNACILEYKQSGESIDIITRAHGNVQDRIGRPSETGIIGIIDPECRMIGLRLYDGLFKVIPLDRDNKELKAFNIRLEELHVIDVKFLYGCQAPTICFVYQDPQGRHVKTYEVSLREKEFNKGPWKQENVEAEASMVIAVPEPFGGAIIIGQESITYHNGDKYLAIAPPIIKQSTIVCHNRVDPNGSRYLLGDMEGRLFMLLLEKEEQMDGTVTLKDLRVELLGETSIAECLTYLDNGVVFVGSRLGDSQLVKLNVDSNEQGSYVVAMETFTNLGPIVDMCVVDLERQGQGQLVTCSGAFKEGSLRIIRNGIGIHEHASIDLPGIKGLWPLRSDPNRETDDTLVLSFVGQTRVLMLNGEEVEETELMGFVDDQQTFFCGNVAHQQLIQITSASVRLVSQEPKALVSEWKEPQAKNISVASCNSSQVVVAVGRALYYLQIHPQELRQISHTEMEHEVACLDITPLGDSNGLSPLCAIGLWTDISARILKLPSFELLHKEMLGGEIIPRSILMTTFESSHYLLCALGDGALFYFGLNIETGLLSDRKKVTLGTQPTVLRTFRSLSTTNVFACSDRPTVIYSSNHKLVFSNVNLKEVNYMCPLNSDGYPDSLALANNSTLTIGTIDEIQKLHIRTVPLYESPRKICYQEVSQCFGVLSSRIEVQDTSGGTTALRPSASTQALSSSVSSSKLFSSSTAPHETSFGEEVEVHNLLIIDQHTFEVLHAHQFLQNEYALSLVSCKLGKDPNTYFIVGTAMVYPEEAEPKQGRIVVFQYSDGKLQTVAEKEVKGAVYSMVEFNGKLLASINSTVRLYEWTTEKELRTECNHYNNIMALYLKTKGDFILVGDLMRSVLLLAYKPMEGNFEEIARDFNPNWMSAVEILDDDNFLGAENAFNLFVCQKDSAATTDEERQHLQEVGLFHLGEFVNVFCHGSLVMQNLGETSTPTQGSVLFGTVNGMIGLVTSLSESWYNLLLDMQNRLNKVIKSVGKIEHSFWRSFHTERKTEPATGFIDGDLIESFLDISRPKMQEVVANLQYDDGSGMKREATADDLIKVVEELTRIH

In general, EC50 refers to the concentration at which the effect is half-maximal. Take `COC[C@@H]1CN(Cc2ccc3nc(N4CCN(C5COC5)CC4)ccc3c2)C[C@H]1Oc1ccc2c(c1)CN([C@H]1CCC(=O)NC1=O)C2=O` [Example 104, (3S)-3-(5-{[(3S,4S)-4-(methoxymethyl)-1-({2-[4-(oxetan-3-yl)piperazin-1-yl]quinolin-6-yl}methyl)pyrrolidin-3-yl]oxy}-1-oxo-2,3-dihydro-1H-isoindol-2-yl)piperidine-2,6-dione]: in the assay on MKN45 cells, the concentration giving a half-maximal response (EC50) came to 1 nM and the “MKN45 Cell Prolif. 120 hr YMin (%)” value worked out at 8.2%. Moreover, in the assay with MDA-MB-231 cells, the 50% effective concentration (EC50) stood at 18 nM and the “MDA-MB 231 Cell Prolif. 120 hr YMin (%)” value came to 42.5%. In addition, on WEE1, the “293T-LentiX WEE1-ePL Degradation 4 hr YMin (%)” value was determined as 21.3%.
For `COC[C@@H]1CN(Cc2ccc3ccc(N4CCOCC4)nc3c2F)C[C@H]1Oc1ccc2c(c1)CN([C@H]1CCC(=O)NC1=O)C2=O` [Example 105, (3S)-3-(5-{[(3S,4S)-1-{[8-fluoro-2-(morpholin-4-yl)quinolin-7-yl]methyl}-4-(methoxymethyl)pyrrolidin-3-yl]oxy}-1-oxo-2,3-dihydro-1H-isoindol-2-yl)piperidine-2,6-dione], in the assay with MKN45 cells, the concentration for a half-maximal effect (EC50) came out at 87 nM and the “MKN45 Cell Prolif. 120 hr YMin (%)” value worked out at 83.4%. Further, in the assay with MDA-MB-231 cells, the 50% effective concentration (EC50) came out at 234 nM and the “MDA-MB 231 Cell Prolif. 120 hr YMin (%)” value came out at 91.5%. Also, on WEE1, the DC50 came to 1 nM and the “293T-LentiX WEE1-ePL Degradation 4 hr YMin (%)” value is on record as 40.7%.
As for `COC[C@@H]1CN(Cc2cc(F)c3nc(C(=O)N4CCOCC4)ccc3c2)C[C@H]1Oc1ccc2c(c1)CN([C@H]1CCC(=O)NC1=O)C2=O` [Example 106, (3S)-3-(5-{[(3S,4S)-1-{[8-fluoro-2-(morpholine-4-carbonyl)quinolin-6-yl]methyl}-4-(methoxymethyl)pyrrolidin-3-yl]oxy}-1-oxo-2,3-dihydro-1H-isoindol-2-yl)piperidine-2,6-dione], in the assay with MKN45 cells, the half-maximal effective concentration (EC50) is 18 nM and the “MKN45 Cell Prolif. 120 hr YMin (%)” value is recorded as 11.5%. Moreover, in the assay with MDA-MB-231 cells, the EC50 is 18 nM and the “MDA-MB 231 Cell Prolif. 120 hr YMin (%)” value was determined as 50.8%. Also, at WEE1, the DC50 was determined as 4 nM and the “293T-LentiX WEE1-ePL Degradation 4 hr YMin (%)” value is 29.8%.
As for `COC[C@@H]1CN(Cc2cc(F)c3nc(CC(C)(C)O)ncc3c2)C[C@H]1Oc1ccc2c(c1)CN([C@H]1CCC(=O)NC1=O)C2=O` [Example 107, (3S)-3-(5-{[(3S,4S)-1-{[8-fluoro-2-(2-hydroxy-2-methylpropyl)quinazolin-6-yl]methyl}-4-(methoxymethyl)pyrrolidin-3-yl]oxy}-1-oxo-2,3-dihydro-1H-isoindol-2-yl)piperidine-2,6-dione], in the assay with MKN45 cells, the EC50 amounted to 13 nM and the “MKN45 Cell Prolif. 120 hr YMin (%)” value came to 10.4%. Moreover, in the assay with MDA-MB-231 cells, the EC50 turned out to be 134 nM and the “MDA-MB 231 Cell Prolif. 120 hr YMin (%)” value is reported as 51.6%. On WEE1, the DC50 stood at 8 nM and the “293T-LentiX WEE1-ePL Degradation 4 hr YMin (%)” value was determined as 19.5%.
In the case of `COC[C@@H]1CN(Cc2ccc3ccc(N4CCOCC4)nc3c2)C[C@H]1Oc1ccc2c(c1)CN([C@H]1CCC(=O)NC1=O)C2=O` [Example 108, (3S)-3-(5-{[(3S,4S)-4-(methoxymethyl)-1-{[2-(morpholin-4-yl)quinolin-7-yl]methyl}pyrrolidin-3-yl]oxy}-1-oxo-2,3-dihydro-1H-isoindol-2-yl)piperidine-2,6-dione], in the assay with MKN45 cells, the EC50 is 340 nM and the “MKN45 Cell Prolif. 120 hr YMin (%)” value turned out to be 89.6%. In the assay on MDA-MB-231 cells, the concentration giving a half-maximal response (EC50) was 3100 nM and the “MDA-MB 231 Cell Prolif. 120 hr YMin (%)” value was 82.8%. At WEE1, the DC50 was found to be 8 nM and the “293T-LentiX WEE1-ePL Degradation 4 hr YMin (%)” value amounted to 61.2%.
In the case of `COC[C@@H]1CN(Cc2cc(F)c3ncc(C4CCOCC4)cc3c2)C[C@H]1Oc1ccc2c(c1)CN([C@H]1CCC(=O)NC1=O)C2=O` [Example 109, (3S)-3-(5-{[(3S,4S)-1-{[8-fluoro-3-(oxan-4-yl)quinolin-6-yl]methyl}-4-(methoxymethyl)pyrrolidin-3-yl]oxy}-1-oxo-2,3-dihydro-1H-isoindol-2-yl)piperidine-2,6-dione], in the assay with MKN45 cells, the EC50 was 1 nM and the “MKN45 Cell Prolif. 120 hr YMin (%)” value is reported as 8.7%. Moreover, in the assay on MDA-MB-231 cells, the EC50 worked out at 16 nM and the “MDA-MB 231 Cell Prolif. 120 hr YMin (%)” value amounted to 37.3%. For the same molecule, the “293T-LentiX WEE1-ePL Degradation 4 hr YMin (%)” value at WEE1 worked out at 27.5%.
For the molecule `COC[C@@H]1CN(Cc2cc(F)c3nc(N4CCC(C(C)(C)O)CC4)ccc3c2)C[C@H]1Oc1ccc2c(c1)CN([C@H]1CCC(=O)NC1=O)C2=O` [Example 110, (3S)-3-(5-{[(3S,4S)-1-({8-fluoro-2-[4-(2-hydroxypropan-2-yl)piperidin-1-yl]quinolin-6-yl}methyl)-4-(methoxymethyl)pyrrolidin-3-yl]oxy}-1-oxo-2,3-dihydro-1H-isoindol-2-yl)piperidine-2,6-dione], the “MKN45 Cell Prolif. 120 hr YMin (%)” value with MKN45 cells is recorded as 6.8%. For the same molecule, in the assay with MDA-MB-231 cells, the concentration giving a half-maximal response (EC50) is 12 nM and the “MDA-MB 231 Cell Prolif. 120 hr YMin (%)” value was found to be 17.4%. For the same molecule, the “293T-LentiX WEE1-ePL Degradation 4 hr YMin (%)” value at WEE1 turned out to be 27.3%.
Regarding `COC[C@@H]1CN(Cc2ccc3nc(N4CCN(C5CN(C)C5)CC4)ccc3c2)C[C@H]1Oc1ccc2c(c1)CN([C@H]1CCC(=O)NC1=O)C2=O` [Example 113, (3S)-3-(5-{[(3S,4S)-4-(methoxymethyl)-1-({2-[4-(1-methylazetidin-3-yl)piperazin-1-yl]quinolin-6-yl}methyl)pyrrolidin-3-yl]oxy}-1-oxo-2,3-dihydro-1H-isoindol-2-yl)piperidine-2,6-dione], in the assay with MKN45 cells, the EC50 was 4 nM and the “MKN45 Cell Prolif. 120 hr YMin (%)” value worked out at 9.0%. In the assay with MDA-MB-231 cells, the concentration giving a half-maximal response (EC50) turned out to be 98 nM and the “MDA-MB 231 Cell Prolif. 120 hr YMin (%)” value amounted to 55.3%. In addition, at WEE1, the DC50 is 9 nM and the “293T-LentiX WEE1-ePL Degradation 4 hr YMin (%)” value is 29.5%.
Regarding `COC[C@@H]1CN(Cc2ccc3nc(C4CCN(C5COC5)CC4)ccc3c2)C[C@H]1Oc1ccc2c(c1)CN([C@H]1CCC(=O)NC1=O)C2=O` [Example 114, (3S)-3-(5-{[(3S,4S)-4-(methoxymethyl)-1-({2-[1-(oxetan-3-yl)piperidin-4-yl]quinolin-6-yl}methyl)pyrrolidin-3-yl]oxy}-1-oxo-2,3-dihydro-1H-isoindol-2-yl)piperidine-2,6-dione], in the assay on MKN45 cells, the EC50 came to 1 nM and the “MKN45 Cell Prolif. 120 hr YMin (%)” value was determined as 8.6%. In the assay on MDA-MB-231 cells, the EC50 worked out at 14 nM and the “MDA-MB 231 Cell Prolif. 120 hr YMin (%)” value was 47.4%. In addition, the “293T-LentiX WEE1-ePL Degradation 4 hr YMin (%)” value on WEE1 is reported as 29.7%.
As to `COC[C@@H]1CN(Cc2cc3ccc(C(=O)N(C)C)cc3cn2)C[C@H]1Oc1ccc2c(c1)CN([C@H]1CCC(=O)NC1=O)C2=O` [Example 115, 3-{[(3S,4S)-3-({2-[(3S)-2,6-dioxopiperidin-3-yl]-1-oxo-2,3-dihydro-1H-isoindol-5-yl}oxy)-4-(methoxymethyl)pyrrolidin-1-yl]methyl}-N,N-dimethyliso-quinoline-7-carboxamide], in the assay with MKN45 cells, the concentration giving a half-maximal response (EC50) was determined as 9 nM and the “MKN45 Cell Prolif. 120 hr YMin (%)” value is reported as 9.4%. Further, in the assay on MDA-MB-231 cells, the EC50 is 213 nM and the “MDA-MB 231 Cell Prolif. 120 hr YMin (%)” value was 41.5%. For the same molecule, at WEE1, the DC50 came out at 6 nM and the “293T-LentiX WEE1-ePL Degradation 4 hr YMin (%)” value is reported as 21.5%.
For the molecule `COC[C@@H]1CN(Cc2cc(F)c3nc(C(=O)N(C)C4CCOCC4)ccc3c2)C[C@H]1Oc1ccc2c(c1)CN([C@H]1CCC(=O)NC1=O)C2=O` [Example 117, 6-{[(3S,4S)-3-({2-[(3S)-2,6-dioxopiperidin-3-yl]-1-oxo-2,3-dihydro-1H-isoindol-5-yl}oxy)-4-(methoxymethyl)pyrrolidin-1-yl]methyl}-8-fluoro-N-methyl-N-(oxan-4-yl)quinoline-2-carboxamide], in the assay with MKN45 cells, the half-maximal effective concentration (EC50) amounted to 4 nM and the “MKN45 Cell Prolif. 120 hr YMin (%)” value was found to be 9.1%. Further, in the assay with MDA-MB-231 cells, the concentration giving a half-maximal response (EC50) amounted to 31 nM and the “MDA-MB 231 Cell Prolif. 120 hr YMin (%)” value is reported as 40.1%. Also, at WEE1, the DC50 stood at 2 nM and the “293T-LentiX WEE1-ePL Degradation 4 hr YMin (%)” value is listed as 27.5%.
As to `COC[C@@H]1CN(Cc2cc(F)c3nc(C45CCC(C(C)(C)O)(CC4)CC5)ccc3c2)C[C@H]1Oc1ccc2c(c1)CN([C@H]1CCC(=O)NC1=O)C2=O` [Example 119, (S)-3-(5-(((3S,4S)-1-((8-fluoro-2-(4-(2-hydroxypropan-2-yl)bicyclo[2.2.2]octan-1-yl)quinolin-6-yl)methyl)-4-(methoxymethyl)pyrrolidin-3-yl)oxy)-1-oxoisoindolin-2-yl)piperidine-2,6-dione], the “MKN45 Cell Prolif. 120 hr YMin (%)” value with MKN45 cells worked out at 6.8%. Moreover, in the assay on MDA-MB-231 cells, the concentration giving a half-maximal response (EC50) came to 67 nM and the “MDA-MB 231 Cell Prolif. 120 hr YMin (%)” value came out at 1.7%. In addition, the “293T-LentiX WEE1-ePL Degradation 4 hr YMin (%)” value at WEE1 was 23.6%.
On to `COC[C@@H]1CN(Cc2cc(F)c3nc(C4CN(CC(C)(C)O)C4)ccc3c2)C[C@H]1Oc1ccc2c(c1)CN([C@H]1CCC(=O)NC1=O)C2=O` [Example 120, (3S)-3-(5-{[(3S,4S)-1-({8-fluoro-2-[1-(2-hydroxy-2-methylpropyl)azetidin-3-yl]quinolin-6-yl}methyl)-4-(methoxymethyl)pyrrolidin-3-yl]oxy}-1-oxo-2,3-dihydro-1H-isoindol-2-yl)piperidine-2,6-dione], for which, in the assay with MKN45 cells, the EC50 is 2 nM and the “MKN45 Cell Prolif. 120 hr YMin (%)” value was 7.8%. In addition, in the assay with MDA-MB-231 cells, the 50% effective concentration (EC50) was 63 nM and the “MDA-MB 231 Cell Prolif. 120 hr YMin (%)” value is given as 30.0%. On WEE1, the DC50 came out at 4 nM and the “293T-LentiX WEE1-ePL Degradation 4 hr YMin (%)” value turned out to be 17.2%.
